Laboratory results as given in paper PMC9694048 (Pharmaceutics, 2022).
In brackets after ≈: the same amount, converted by molar mass. Structures can show the parent of a compound that is named as a salt. Where two headings read alike, the source gives them in different places. Where a SMILES comes first, the peptide text is derived from it. [ ]: non-standard residue; d: D form.

Assays:
[1] = system: ARPE-19 cells; assay: Western blot of apoptotic markers in cytoplasmic and mitochondrial fractions; type: cell-based, Human; conditions: ARPE-19, 48-h exposure, cytoplasmic and mitochondrial fractions (Figure 5c)
[2] = system: WERI-Rb1 cells; assay: MTS cell viability assay; type: cell-based
Experimental: (§1) WERI-Rb1 and ARPE-19 cells were seeded at a concentration of 2 × 10^3 cells/well in a 96-well plate and cultured at 37 °C in a humidified 5% CO2 incubator. After seeding the cells, they were treated with various concentrations of CAPs and further incubated for 48 h at 37 °C. Cell viability was assessed after 48 h using the Cell-Titer 96® Aqueous One Solution Cell Proliferation Assay (cat#G3582, Promega, WI, USA) according to the manufacturer’s protocol and described earlier. Briefly, 10 µL of MTS reagent was added to each well and the cells were incubated at 37 °C for 2 h before the experiment end time points. Percentage cell viability was calculated from the absorbance measured at 490 nm using a TECAN microplate reader.

[3] = system: ARPE-19 cells; assay: MTS cell viability assay; type: cell-based, Human; conditions: ARPE-19, MTS, 48 h (Figure 2c)
Experimental: as §1

[4] = system: WERI-Rb1 cells; assay: Western blot of DNA damage markers; type: cell-based; conditions: IC50 dose; for phosphorylation of ATM and CHK2 (immunoblot): 48-h treatment, Western blot (Figure 4b); for γH2A.X phosphorylation at Ser139 (immunoblot): 48 h, Western blot (Figure 4a)
Experimental: WERI-Rb1 cells were seeded in 6-well cell culture plates (1 × 10^6 cells/well), incubated at 37 °C in a humidified 5% CO2 incubator, and were treated with IC50 doses of topotecan, HC3. or HC5. After 48 h, cells were lysed in RIPA buffer (20 mM Tris pH 8.0, 0.1% SDS, 150 mM NaCl, 0.08% sodium deoxycholate, 1% NP40 supplemented with one tablet of protease inhibitor and phosphatase inhibitor (Roche). 20 µg of total protein was loaded per lane and separated by SDS-PAGE. The separated proteins on the gel were transferred to PVDF membrane and were probed for antibodies against γH2A.X (1:1000, cat#2595, Cell Signaling Technology, Danvers, MA, USA), p-γH2A.X (Ser139) (1:1000, cat#2577, Cell Signaling Technology, Danvers, MA, USA), p-BCL2(Ser70) (1:1000, cat#2827, Cell Signaling Technology, Danvers, MA, USA), BCL2 (1:1000, cat#2872, Cell Signaling Technology, Danvers, MA, USA), Bax (1:1000, cat#2772, Cell Signaling Technology, Danvers, MA, USA), p-ATM(Ser1981) (1:1000, cat#5883, Cell Signaling Technology, Danvers, MA, USA), ATM (1:1000, cat#2873, Cell Signaling Technology, Danvers, MA, USA), p-Chk2(Thr68) (1:1000, cat#2661, Cell Signaling Technology, Danvers, MA, USA), Chk2 ([…], cat#2662, Cell Signaling Technology, Danvers, MA, USA), p-p53(Ser15) (1:1000, cat#9284, Cell Signaling Technology, Danvers, MA, USA), p-p53(Ser46) (1:1000, cat#2521, Cell Signaling Technology, Danvers, MA, USA), p53 (1:1000, cat#2524, Cell Signaling Technology, Danvers, MA, USA), Cleaved caspase 9 (1:1000, cat#9505, Cell Signaling Technology, Danvers, MA, USA), Cleaved caspase 3 (1:1000, cat#9661, Cell Signaling Technology, Danvers, MA, USA), Cleaved PARP (1:1000, cat#5625, Cell Signaling Technology, Danvers, MA, USA), and GAPDH (1:2000, cat#ab9485, Abcam, Cambridge, UK). Proteins of interest were detected with HRP-conjugated sheep anti-mouse (1:5000, cat#7076, Cell Signaling Technology, Danvers, MA, USA) or anti-rabbit IgG antibody (1:5000, cat#7074, Cell Signaling Technology, Danvers, MA, USA) and visualized with the Clarity ECL Western blotting substrate (Bio-Rad, Hercules, CA, USA) according to the provided protocol.

[5] = system: WERI-Rb1 cells; assay: Trypan blue viability assay; type: cell-based; conditions: WERI-Rb1, 48 h treatment; for cell death at a high dose: high dose (dose not specified); for cell death at a low dose: low dose (dose not specified)
Experimental: WERI-Rb1 cells (1 × 10^5) were treated with increasing concentrations (7.7 µM, 36.25 µM, 72.5 µM, 145 µM, or 290 µM) of a panel of six HC peptides (HC1, HC2, HC3, HC4, HC5, and HC6). Nocodazole (10 µM) treatment was used as a positive control for the study, with untreated cells as the negative control. All treatments were performed at 37 °C in a 90% humidified incubator with 5% CO2 for 48 h. After 48 h post-treatment, cells were stained with 0.4% trypan blue (cat#15250061, Invitrogen, Waltham, MA, USA) and the number of live and dead cells for each time point was estimated using the hemocytometer cell counting protocol. The percentage of cell viability was calculated by dividing the live cell count by the total cell count.

[6] = system: WERI-Rb1 tumor spheroids; assay: Tumor spheroid area by high content imaging; type: cell-based; conditions: 7-day-old WERI-Rb1 spheroids, IC50 dose, 48 h, n = 9 per condition
Experimental: Spheroids were developed using the hanging drop protocol on low attachment U-bottom 96-well plate. The single cell suspension of 5 × 10^2 WERI-Rb1 cells in 100 µL medium was loaded in each well of a 96-well plate. The cells were cultured at 37 °C in a 90% humidified incubator with 5% CO2 for 7 days for the generation of tight and regular tumor spheroids. Seven-day-old spheroids (n = 9 per condition) were treated with 100 μL of freshly prepared medium containing an IC50 dose of topotecan (Figure S1), HC3, or HC5. The cultures were then incubated for 48 h prior to high content analysis (HCA) and immunofluorescence (IF) assays.
WERI-Rb1 cells were stained with orange plasma membrane stain as per the manufacturer’s protocol (Cell Mask Orange Plasma membrane stain; cat#C10045, Invitrogen, Waltham, MA, USA) prior to the development of spheroids. The stained WERI-Rb1 cells were used for spheroid formation using the hanging drop protocol on a low attachment U-bottom 96-well plate. […] The images were acquired using the automated high-content imaging system, IN Cell Analyzer 6000 (GE Healthcare, Singapore), equipped with a laser-based confocal platform having a 2× objective. The automatically captured single well imaging of spheroids and a Z stack of 11 images were separated by 50 µm total 500 µm depth for spheroids, using maximum intensity projection (MIP) acquisition and single-channel filter at 567 nm. To reduce data storage and image analysis time, we analyzed 2D projection images of tumor spheroids for multiple treatment conditions. Spheroid area and shape were automatically quantified by HCA using the IN-Cell 6000 software (GE Healthcare, Singapore). The mean area (µm^2) of each spheroid was calculated to elucidate the drug/peptide response.

[7] = system: S. aureus/MRSA; assay: MIC by broth microdilution; type: cell-based; conditions: 35 °C, 24 h, duplicates
Experimental: The minimum inhibitory concentrations (MIC) of cationic peptides were determined using the broth microdilution method in a 96-well microtiter plate (Cellstar, Greiner Bio-One, Austria). The inoculum was prepared by suspending overnight grown isolated colonies selected from a Tryptic Soy Agar (TSA) plate in water for injection. The concentration of the inoculum suspension was adjusted to match that of the 0.5 McFarland’s standard (10^8 CFU/mL) and further diluted 150-fold by adding 50 μL of suspension into 7.5 mL of Mueller−Hinton broth to obtain an inoculum of 10^5 to 10^6 CFU/mL. Lyophilized peptide obtained from the manufacturer was dissolved in water and adjusted to a final concentration of 0.5 to 256 μg/mL in twofold serial dilutions. A total of 100 μL of the solution was then mixed with an equal volume of bacterial inoculum prepared before in 96-well plates. The plates were then incubated at 35 °C for 24 h, and the optical density at 600 nm (OD600) was determined using a TECAN microplate reader.

[8] = WERI-Rb1 cells, 48 h, dose used for spheroid treatment

`N=C(N)NCCC[C@@H](NC(=O)[C@H](CCCCN)NC(=O)[C@@H](CCCNC(=N)N)NC(=O)[C@H](CCCCN)NC(=O)[C@@H](CCCNC(=N)N)NC(=O)[C@H](CCCCN)NC(=O)[C@@H](CCCNC(=N)N)NC(=O)[C@H](CCCCN)NC(=O)[C@@H](CCCNC(=N)N)NC(=O)[C@H](CCCCN)NC(=O)[C@@H](CCCNC(=N)N)NC(=O)[C@@H](N)CCCCN)C(=O)O` [HC3] (H-K[dR]K[dR]K[dR]K[dR]K[dR]K[dR]-OH; N-terminus and C-terminus assumed) was tested, and the “apoptotic events in ARPE-19 cells (Bax, cytochrome c)” value (“apoptotic events in ARPE-19 cells” below) [1] was “did not trigger any apoptotic events”, the IC50 [2, 8] was 77.2 µL/mL and the “cytotoxic effect on non-malignant ARPE-19 cells” value [3] was “did not display any cytotoxic effect”. The “phosphorylation of ATM and CHK2 (immunoblot)” value [4] was “induced phosphorylation of ATM (ataxia-telangiectasia mutated) at Ser1981 and CHK2 at Thr68”, the “γH2A.X phosphorylation at Ser139 (immunoblot)” value (“γH2A.X phosphorylation” for short) [4] was “did not show any activation of γH2A.X(Ser139)” and the “cell death at a high dose” value [5] was 60%. For the same molecule, the “cell death at a low dose” value [5] was 40% and the “effect on Rb spheroid size” value [6] was “effectively shrunk and decreased the Rb spheroid size”.

For `N=C(N)NCCC[C@H](NC(=O)[C@@H](CCCCN)NC(=O)[C@H](CCCNC(=N)N)NC(=O)[C@@H](CCCCN)NC(=O)[C@H](CCCNC(=N)N)NC(=O)[C@@H](CCCCN)NC(=O)[C@H](CCCNC(=N)N)NC(=O)[C@@H](CCCCN)NC(=O)[C@H](CCCNC(=N)N)NC(=O)[C@@H](CCCCN)NC(=O)[C@H](CCCNC(=N)N)NC(=O)[C@H](N)CCCCN)C(=O)O` [HC5] (H-[dK]R[dK]R[dK]R[dK]R[dK]R[dK]R-OH; N-terminus and C-terminus assumed), the “apoptotic events in ARPE-19 cells” value [1] was “did not trigger any apoptotic events”, the IC50 [2, 8] was 65.2 µL/mL and the “cytotoxic effect on non-malignant ARPE-19 cells” value [3] was “did not display any cytotoxic effect”. The “phosphorylation of ATM and CHK2 (immunoblot)” value [4] was “induced phosphorylation of ATM (ataxia-telangiectasia mutated) at Ser1981 and CHK2 at Thr68”, the “γH2A.X phosphorylation” value [4] was “did not show any activation of γH2A.X(Ser139)” and the “cell death at a high dose” value [5] was 60%. The “cell death at a low dose” value [5] was 40% and the “effect on Rb spheroid size” value [6] was “effectively shrunk and decreased the Rb spheroid size”.

Work on `COc1cccc2c1C(=O)c1c(O)c3c(c(O)c1C2=O)C[C@@](O)(C(=O)CO)C[C@@H]3O[C@H]1C[C@H](N)[C@H](O)[C@H](C)O1` [doxorubicin] yielded an IC50 ([2]; WERI-Rb1, MTS, 48 h exposure, (Figure S4), read-out: IC50) of 2500 nM.

With `CC[C@@]1(O)C(=O)OCc2c1cc1n(c2=O)Cc2cc3c(CN(C)C)c(O)ccc3nc2-1` [topotecan, Topotecan hydrochloride hydrate] the “apoptotic events in ARPE-19 cells” value [1] was “induced Bax expression in the mitochondrial fraction of ARPE-19”, the IC50 ([2]; WERI-Rb1, MTS, 48 h exposure, 5 nM to 50 nM (Figure S3), read-out: IC50) was 10 nM and the “γH2A.X phosphorylation” value [4] was “induction of γH2A.X phosphorylation at Ser139”. For the same molecule, the “effect on Rb spheroid size” value [6] was “disrupted Rb spheroids”.

`CCCCCCCCCC(=O)N[C@@H](Cc1c[nH]c2ccccc12)C(=O)N[C@H](CC(N)=O)C(=O)N[C@@H](CC(=O)O)C(=O)N[C@@H]1C(=O)NCC(=O)N[C@@H](CCCN)C(=O)N[C@@H](CC(=O)O)C(=O)N[C@H](C)C(=O)N[C@@H](CC(=O)O)C(=O)NCC(=O)N[C@H](CO)C(=O)N[C@@H]([C@H](C)CC(=O)O)C(=O)N[C@@H](CC(=O)c2ccccc2N)C(=O)O[C@@H]1C` [Daptomycin] showed a Minimum inhibitory concentration ([7]; strain MRSA 9808R, Mueller-Hinton broth) of 0.31 µM (≈ 0.502 µg/mL), a Minimum inhibitory concentration ([7]; strain MRSA 21595, Mueller-Hinton broth) of 0.31 µM (≈ 0.502 µg/mL) and a Minimum inhibitory concentration ([7]; strain MRSA 42412, Mueller-Hinton broth) of 0.31 µM (≈ 0.502 µg/mL). For the same molecule, the Minimum inhibitory concentration ([7]; strain MRSA 43300, Mueller-Hinton broth) was 0.31 µM (≈ 0.502 µg/mL), the Minimum inhibitory concentration ([7]; strain MRSA 68004, Mueller-Hinton broth) was 0.31 µM (≈ 0.502 µg/mL) and the Minimum inhibitory concentration ([7]; strain MRSA 700699, Mueller-Hinton broth) was 0.62 µM (≈ 1 µg/mL). For the same molecule, the Minimum inhibitory concentration ([7]; strain MRSA +B32:L426506, Mueller-Hinton broth) was 0.31 µM (≈ 0.502 µg/mL), the Minimum inhibitory concentration ([7]; strain MRSA BAA38, Mueller-Hinton broth) was 4.94 µM (≈ 8.01 µg/mL) and the Minimum inhibitory concentration ([7]; strain MRSA DB57964/04, Mueller-Hinton broth) was 0.31 µM (≈ 0.502 µg/mL). The Minimum inhibitory concentration ([7]; strain S. aureus 4299, Mueller-Hinton broth) was 2.47 µM (≈ 4 µg/mL), the Minimum inhibitory concentration ([7]; strain S. aureus 4400R, Mueller-Hinton broth) was 0.31 µM (≈ 0.502 µg/mL) and the Minimum inhibitory concentration ([7]; strain S. aureus 4583R, Mueller-Hinton broth) was 0.31 µM (≈ 0.502 µg/mL). The Minimum inhibitory concentration ([7]; strain S. aureus 6538, Mueller-Hinton broth) was 0.15 µM (≈ 0.243 µg/mL), the Minimum inhibitory concentration ([7]; strain S. aureus 29213, Mueller-Hinton broth) was 0.15 µM (≈ 0.243 µg/mL) and the Minimum inhibitory concentration ([7]; strain S. aureus 29737, Mueller-Hinton broth) was 0.31 µM (≈ 0.502 µg/mL).
